From publication PMC2099433, “The binding site for neohesperidin dihydrochalcone at the human sweet taste receptor” (BMC Structural Biology, 2007)
Residue numbers refer to the chain shown, from its start. Where a SMILES comes first, the peptide text is derived from it.

Columns and labels:
[1] = target: T1, hTAS1R2 + hTAS1R3 L800F^7.38 (Homo sapiens, UniProt Q7RTX0+Q8TE23, L800F); assay: Calcium response (FLIPR), hTAS1R3 mutant coexpressed with hTAS1R2; assay type: cell-based; details: variant L800F^7.38; for Emax: read-out: maximal signal (% of wt)
T1 construct: expressed in transfected cells; host or cells: HEK293T cells stably expressing G16Gust44
T1 sequence (Q7RTX0 21-852 L800F): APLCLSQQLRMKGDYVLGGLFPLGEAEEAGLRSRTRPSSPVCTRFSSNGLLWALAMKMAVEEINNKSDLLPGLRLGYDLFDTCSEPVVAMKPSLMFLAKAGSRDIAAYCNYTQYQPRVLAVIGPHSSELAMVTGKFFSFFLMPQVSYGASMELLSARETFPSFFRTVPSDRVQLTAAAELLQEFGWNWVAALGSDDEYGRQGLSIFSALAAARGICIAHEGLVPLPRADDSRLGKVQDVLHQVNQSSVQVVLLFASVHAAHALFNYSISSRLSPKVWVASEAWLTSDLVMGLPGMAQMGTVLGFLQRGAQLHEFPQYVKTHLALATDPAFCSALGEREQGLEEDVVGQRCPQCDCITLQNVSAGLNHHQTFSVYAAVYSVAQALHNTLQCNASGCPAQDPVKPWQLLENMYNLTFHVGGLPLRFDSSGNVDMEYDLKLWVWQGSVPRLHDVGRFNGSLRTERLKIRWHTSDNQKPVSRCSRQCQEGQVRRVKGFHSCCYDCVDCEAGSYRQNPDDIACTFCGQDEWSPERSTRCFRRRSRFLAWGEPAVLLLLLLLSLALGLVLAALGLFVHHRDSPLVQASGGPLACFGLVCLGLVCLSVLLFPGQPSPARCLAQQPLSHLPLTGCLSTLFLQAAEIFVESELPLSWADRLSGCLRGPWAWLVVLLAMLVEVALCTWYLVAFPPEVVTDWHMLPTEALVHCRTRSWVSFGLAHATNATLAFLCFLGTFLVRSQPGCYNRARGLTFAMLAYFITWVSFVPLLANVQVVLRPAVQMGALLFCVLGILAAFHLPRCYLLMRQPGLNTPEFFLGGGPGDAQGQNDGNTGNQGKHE
T1 sequence (Q8TE23 20-839): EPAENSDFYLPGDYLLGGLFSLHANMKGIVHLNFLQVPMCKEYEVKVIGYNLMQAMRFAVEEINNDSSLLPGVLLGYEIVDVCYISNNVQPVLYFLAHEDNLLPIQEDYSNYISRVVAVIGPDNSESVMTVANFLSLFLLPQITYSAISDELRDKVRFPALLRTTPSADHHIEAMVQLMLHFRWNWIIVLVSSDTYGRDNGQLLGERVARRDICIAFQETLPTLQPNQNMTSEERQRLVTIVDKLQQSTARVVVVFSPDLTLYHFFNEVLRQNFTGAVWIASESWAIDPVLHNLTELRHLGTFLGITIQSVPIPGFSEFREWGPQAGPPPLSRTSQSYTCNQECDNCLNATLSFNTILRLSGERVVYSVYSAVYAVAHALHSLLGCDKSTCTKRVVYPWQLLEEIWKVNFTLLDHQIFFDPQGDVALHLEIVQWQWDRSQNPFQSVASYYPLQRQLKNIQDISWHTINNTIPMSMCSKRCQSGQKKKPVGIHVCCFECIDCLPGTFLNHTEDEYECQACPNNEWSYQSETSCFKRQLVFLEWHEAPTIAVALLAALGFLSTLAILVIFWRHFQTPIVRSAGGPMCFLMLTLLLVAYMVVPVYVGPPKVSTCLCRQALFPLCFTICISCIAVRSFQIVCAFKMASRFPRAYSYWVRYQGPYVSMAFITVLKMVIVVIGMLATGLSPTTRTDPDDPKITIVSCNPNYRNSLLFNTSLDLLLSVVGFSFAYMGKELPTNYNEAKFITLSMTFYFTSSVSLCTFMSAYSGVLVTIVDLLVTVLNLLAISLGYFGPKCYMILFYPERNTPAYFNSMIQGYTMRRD
Procedure, shortened: (§1)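 HEK293T cells stably expressing chimeric G16Gust44 were transiently transfected with C-terminally HSV-tagged hTAS1R2 and mutant hTAS1R3, then loaded 24 h later with Fluo4-AM for 1 h. Calcium mobilization after sweet-tastant application was read by FLIPR, mock-corrected and expressed as ΔF/F.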

[2] = target: T2, hTAS1R2 + hTAS1R3 G804A^7.42 (Homo sapiens, UniProt Q7RTX0+Q8TE23, G804A); assay: as above; assay type: cell-based; details: variant G804A^7.42; for Emax: read-out: maximal signal (% of wt)
T2 construct: expressed in transfected cells; host or cells: HEK293T cells stably expressing G16Gust44
T2 sequence (Q7RTX0 21-852 G804A): T1 sequence (Q7RTX0 21-852 L800F) with F780L, G784A
T2 sequence (Q8TE23 20-839): T1 sequence (Q8TE23 20-839)
Procedure, shortened: as §1

Row | EC50 [1] | Emax [1] | EC50 [2] | Emax [2] | Compound
1 | 200 ± 100 µM | 91 ± 70% | 1.3 ± 0.5 mM | 53 ± 10% | COc1ccc(CCC(=O)c2c(O)cc(O[C@@H]3O[C@H](CO)[C@@H](O)[C@H](O)[C@H]3O[C@@H]3O[C@@H](C)[C@H](O)[C@@H](O)[C@H]3O)cc2O)cc1O [NHDC, neohesperidin dihydrochalcone]
2 | 1200 ± 300 µM | 90 ± 1% | 1.6 ± 0.2 mM | 44 ± 1% | COC(=O)[C@H](Cc1ccccc1)NC(=O)[C@@H](N)CC(=O)O [aspartame] (HELM PEPTIDE1{D.F.[CO[*:1]]}$$$$V2.0)
